Several values for one entry are separate records, joined by “and”; a condition that tells them apart may be missing. Equal entries are not always repeated. Where two headings read alike, the source gives them in different places.
Experiments:
[1] = system: keloid-derived cells; assay: Collagen synthesis in keloid-derived cells ([3H]proline incorporation, collagenase digestion); type: cell-based, human; settings: 24 hours incubation, FIG. 2
Description: A keloid, which had arisen in response to the piercing of the ear for insertion of an earring, was removed from the ear lobe of a person. The keloid tissue was sectioned so that histological studies could be performed. Briefly, the tissue samples were collected into phosphate-buffered saline (PBS) and fixed overnight in 4% paraformaldehyde in PBS at 4° C. Serial 5 um sections were prepared after the samples had been dehydrated in graded ethanol solutions, cleared in chloroform and embedded in Paraplast. Differential staining of collagenous and non-collagenous proteins was performed with 0.1% Sirius red and 0.1% fast green as a counter-stain in picric acid. This procedure stains collagen red [Gascon-Barre, M., et al., J. Histochem. Cytochem., Vol 37, p. 377-381, 1989].
The keloid was removed as described in Example 1 above. The keloid-derived cells were incubated with and without Halofuginone for 24 hours in 0.5 ml glutamine-free DMEM containing 5% FCS (Fetal Calf Serum), ascorbic acid (50 μg/ml), B-aminopropionitrile (50 μg/ml) and 2 μCi of [^3H]proline. At the end of incubation, the medium was decanted and the cells were incubated with or without collagenase for 18 hours, followed by precipitation of proteins by the addition of TCA (trichloroacetic acid). […]

[2] = system: bovine corneal endothelial cells; assay: Sulfate incorporation into ECM of cultured endothelial cells; type: cell-based; settings: FIG. 3
From the text: (§1) As noted above, skin cell hyperproliferation is enabled by the deposition of ECM components. The following examples illustrate the ability of Halofuginone to inhibit such deposition of ECM components, further supporting the use of Halofuginone as a treatment for psoriasis. These examples illustrate the unexpected finding that Halofuginone completely abolishes deposition of all ECM components, and not just collagen, thereby preventing cell proliferation which is enabled by the formation of ECM. Cultures of bovine corneal endothelial cells were established from steer eyes and maintained as previously described [D. Gospodarowicz, et al., Exp. Eye Res., No. 25, pp. 75-99 (1977)]. Cells were cultured at 37° C. in 10% CO2 humidified incubators and the experiments were performed with early (3-8) cell passages.
(§2) For preparation of sulfate-labelled ECM (extra-cellular matrix), corneal endothelial cells were seeded into Swell plates at a confluent density forming, within 4-6 h, a contact inhibited cell monolayer composed of closely apposed, and growth arrested cells. […] To determine the total amount of sulfate labeled material, the ECM was digested with trypsin (25 μg/ml 24 h, 37° C.) and the solubilized material counted in a β-counter.

[3] = system: bovine corneal endothelial cells; assay: Viability and morphology of confluent corneal endothelial cell monolayer; type: cell-based; settings: growth arrested monolayer
From the text: as §1, §2

[4] = system: bovine corneal endothelial cells; assay: Incorporation of sulfate, proline, lysine and glycine into ECM of bovine corneal endothelial cells; type: cell-based; settings: eight days after seeding
Description: Corneal endothelial cells were seeded at a confluent density and grown as described in Example 3 above. The cells were cultured with or without Halofuginone in the presence of either Na2^35SO4 (FIG. 4A), ^3H-proline (FIG. 4B), ^14C-lysine (FIG. 4C) or ^14C-glycine (FIG. 4D). Eight days after seeding, the cell layer was dissolved substantially as described in Example 3 above. The underlying ECM was then either trypsinized to determine the effect of Halofuginone on incorporation of labeled material into total protein, substantially as described in Example 3 above, or subjected to sequential digestions with collagenase and trypsin to evaluate the effect of Halofuginone on both collagenase-digestible proteins (CDP) and non-collagenase digestible proteins (NCDP).

[5] = system: Rat mesengial cells; assay: Sulfate and glycine incorporation into rat mesengial cell ECM; type: cell-based; settings: for inhibition at 0.05 µg/mL / inhibition at 0.2 µg/mL: Rattus norvegicus; for inhibition at 0.05 µg/mL: 50 ng/ml Halofuginone; for inhibition at 0.2 µg/mL: 200 ng/ml Halofuginone
Description: Rat […] grown to confluency, 24 hours after seeding. The cells were then cultured with or without Halofuginone in the presence of either Na2^35SO4 (FIGS. 5A and 5B) or ^14C-glycine (FIGS. 5C and 5D). Eight days after seeding, the cell layer was dissolved to expose the underlying ECM, washed and digested with collagenase to determine the effect of Halofuginone on CDP proteins, as shown in FIGS. 5A and 5C. The remaining material was digested with trypsin and subjected to β-scintillation counting to determine the effect of Halofuginone on NCDP proteins, as shown in FIGS 5B and 5D.

[6] = system: rats; assay: Post-surgical abdominal adhesion formation in rats, Halofuginone in diet as pretreatment; type: in vivo, rat
Description: The experimental method was as follows. Halofuginone was administered in the diet of two groups of rats at a concentration of 5 mg/kg dry feed for 4 days before surgery, as a pretreatment. Two other groups of rats were fed a normal diet and served as control groups. One of the groups of rats fed Halofuginone and one control group then underwent surgery, which was performed as follows. First, the abdomen of the rats was shaved and prepared with iodine and alcohol. The abdominal cavity was entered through a mid-line incision. The small intestine was scraped from the duodenum down to from about 9 to about 10 cm from the cecum, until capillary bleeding occurred. To avoid drying, Hartman's solution at about 37 C. was occasionally dripped on the intestine. After replacement of the intestine into the abdominal cavity, the abdomen was closed in two layers with continuous 00 chromic catgut suture.
In those rats receiving the drug, Halofuginone treatment was continued for 21 days following surgery. At the end of 21 days, the rats were weighed and the number and severity of adhesions were determined according to a double-blind procedure, in which adhesions were classified according to the following grading: 0=no adhesions; I=a thin, filmy, easily separated adhesion; II=several thin adhesions; III=a thick, broad adhesion and IV=several thick adhesions. Clearly, 0 is the least severe and IV is the most severe grade.

O=C(CC1NCCCC1O)Cn1cnc2cc(Br)c(Cl)cc2c1=O (centres unmarked) [Halofuginone]
production of collagen (collagenase-digestible [3H]proline-labelled proteins) [1]: inhibited the production of collagen
production of non-collagenase digestible proteins [1]: not of non-collagenase digestible proteins
inhibition of sulfate incorporation into ECM ([2]; 1 μg/ml Halofuginone): almost complete inhibition
inhibition at 0.2 µg/mL ([2]; Bos taurus, Endothelial cell, 0.2 μg/ml Halofuginone): 50%
concentration up to which cells remained viable and retained normal monolayer configuration and morphological appearance [3]: ≤ 2 μg/ml
incorporation of proline into ECM ([4]; 3H-proline, both CDP and NCDP, FIG. 4B): inhibited
incorporation of glycine into ECM ([4]; 14C-glycine, both CDP and NCDP, FIG. 4D): inhibited
incorporation of lysine into ECM ([4]; 14C-lysine, both CDP and NCDP, FIG. 4C): inhibited
incorporation of sulfate into ECM ([4]; Na2 35SO4, both CDP and NCDP, FIG. 4A): inhibited
microscopic examination of denuded culture dishes (ECM layer) ([5]; ECM produced in the presence of Halofuginone): thin or non-existant layer of ECM
inhibition at 0.05 µg/mL ([5]; collagenase-digestible proteins, read-out: inhibition of glycine incorporation, CDP proteins): ~80%
inhibition at 0.05 µg/mL ([5]; non-collagenase digestible proteins, read-out: inhibition of glycine incorporation, NCDP proteins): ~80%
inhibition at 0.2 µg/mL ([5]; collagenase-digestible proteins, read-out: inhibition of sulfate incorporation, CDP proteins): ~30%
inhibition at 0.2 µg/mL ([5]; non-collagenase digestible proteins, read-out: inhibition of sulfate incorporation, NCDP proteins): ~70%
Adhesion Score ([6]; individual rats, Group Number 2 (taken as surgery + Halofuginone 5 mg/kg dry feed, 4 days before and 21 days after surgery)): 0-1 (3×) and 0 (3×) and 1 (2×) and 1-2 (2×)
adhesions in rats without surgical intervention ([6]; no surgery, Halofuginone in diet): None of the rats without surgical intervention
post-surgical adhesion formation ([6]; rats with surgery, Halofuginone in diet 5 mg/kg dry feed): able to inhibit post-surgical adhesion formation

Source: patent USRE39096E1, “Treatment of skin disorders” (Hadasit Medical Research Services and Development Company …, priority 1997, dated 2006)
